# Data reported in patent US20020137929A1, “1 - (3-heterocyclylphenyl) isothiourea, -isourea, -guanidine and -amidine herbicidal agents” (Intellectual Property Department, BASF Aktiengesellschaft, priority 1998, published 2002).
# Experiments:
# ABUTH (Velvetleaf) = test: Postemergence herbicidal evaluation; format: in vivo, Abutilon theophrasti; conditions: for ABUTH herbicidal rating: postemergence
# How it was run: (§1)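 ~2-wk seedlings; postemergence spray, 40 psi; vehicle 1:1 acetone:water + 0.5% Tween 20; rate ≈0.0156–0.500 kg/ha; greenhouse hold; scored 4–5 wk after treatment, 0–9 scale vs control; repeat tests averaged.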
# [1] = system: CHEAL (Lambsquarters, Common); test: Postemergence herbicidal evaluation; format: in vivo, Chenopodium album; conditions: for CHEAL herbicidal rating: postemergence
# How it was run: as §1
# SETVI (Foxtail, Green) [2] = test: Postemergence herbicidal evaluation; format: in vivo, Setaria viridis; conditions: for SETVI herbicidal rating: postemergence
# How it was run: as §1
# [3] = system: GLXMAW (Soybean, Williams); test: Postemergence herbicidal evaluation; format: in vivo, Glycine max, (L.) Merr. cv Williams; conditions: for GLXMAW herbicidal rating: postemergence
# How it was run: as §1
# ORYSAT (Rice, Tebonnet) = test: Postemergence herbicidal evaluation; format: in vivo, Oryza sativa, (L.) Tebonnet; conditions: for ORYSAT herbicidal rating: postemergence
# How it was run: as §1
# [4] = system: TRZAWR (Wheat, Winter, cv Riband); test: Postemergence herbicidal evaluation; format: in vivo, Triticum aestivum; conditions: for TRZAWR herbicidal rating: postemergence
# How it was run: as §1
# ZEAMX (Corn, Field) = test: Postemergence herbicidal evaluation; format: in vivo, Zea mays; conditions: for ZEAMX herbicidal rating: postemergence
# How it was run: as §1
# AMBEL (Ragweed, Common) = test: Preemergence herbicidal evaluation; format: in vivo, Ambrosia artemisifolia; conditions: rated 4-5 weeks after treatment
# How it was run: (§2)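 Greenhouse preemergence test: seed-soil mix sown on ~1 inch soil; aqueous acetone spray at equivalent of ~0.0156–0.500 kg/ha; greenhouse-held and watered; scored 0–9 visually at 4–5 weeks.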
# GALAP (Galium) = test: Preemergence herbicidal evaluation; format: in vivo, Galium aparine; conditions: rated 4-5 weeks after treatment
# How it was run: as §2
# SETVI (Foxtail, Green) [5] = test: Preemergence herbicidal evaluation; format: in vivo, Setaria viridis; conditions: rated 4-5 weeks after treatment
# How it was run: as §2
# CYPIR (Rice Flatsedge) = test: Preemergence weed control under flooded paddy conditions; format: in vivo, Cyperus iria; conditions: rated 3-4 weeks after treatment
# How it was run: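 Flooded-pot preemergence screen with silt loam and seeds in the upper 0.5 cm. Dose about 0.0313 to 0.500 kg/ha, delivered into flood water; visual 0-9 score after 3 to 4 weeks.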
# [6] = system: ECHORC (Watergrass (Calif.)); test: Postemergence weed control under flooded paddy conditions; format: in vivo, Echinochloa oryzoides; conditions: postemergence weeds
# How it was run: (§3)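 With weeds 3 to 5 cm tall and rice at the 1.5 to 2.5 leaf stage, containers were flooded and water held 1.5 to 3 cm above soil. Compounds in 50/50 v/v aqueous/acetone went into the flood water at about 0.0313 to 0.500 kg/ha a.i. Effects were visually rated 0–9 against controls after three to four weeks in the greenhouse.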
# CYPSE (Flatsedge) = test: as above; format: in vivo, Cyperus serotinus; conditions: postemergence weeds
# How it was run: as §3
# [7] = system: SAGPY (Arrowhead (Pygmaea)); test: as above; format: in vivo, Sagittaria pygmaea; conditions: postemergence weeds
# How it was run: as §3
# [8] = Rate 0.0313 kg/ha, rated 3 to 4 weeks after treatment
# [9] = Rate 0.0625 kg/ha, rated 3 to 4 weeks after treatment
# [10] = Rate 0.1250 kg/ha, rated 3 to 4 weeks after treatment
# [11] = Rate 0.2500 kg/ha, rated 3 to 4 weeks after treatment
# [12] = rate 0.0313 kg/ha, 3-4 weeks after treatment
# [13] = rate 0.0625 kg/ha, 3-4 weeks after treatment
# [14] = rate 0.1250 kg/ha, 3-4 weeks after treatment
# [15] = rate 0.2500 kg/ha, 3-4 weeks after treatment
smiles,measurement,setting,value
"Cn1c(C(F)(F)F)cc(=O)n(-c2cc(N=C3SCC(=O)N3[C@H](Cc3ccccc3)C(=O)O)c(Cl)cc2F)c1=O [Compound 69, α-Benzyl-2-{{2-chloro-5-[3,6-dihydro-3-methyl-2,6-dioxo-4-(trifluoromethyl)-1(2H)-pyrimidinyl]-4-fluorophenyl}imino}-4-oxo-3-thiazolidineacetic acid, D-]",ABUTH herbicidal rating,ABUTH (Velvetleaf); rate 0.0158 kg/ha,9.0
same,ABUTH herbicidal rating,ABUTH (Velvetleaf); rate 0.0315 kg/ha,9.0
same,ABUTH herbicidal rating,ABUTH (Velvetleaf); rate 0.0630 kg/ha,9.0
same,CHEAL herbicidal rating,[1]; rate 0.0158 kg/ha,7.0
same,CHEAL herbicidal rating,[1]; rate 0.0315 kg/ha,9.0
same,SETVI herbicidal rating,"SETVI (Foxtail, Green) [2]; rate 0.0158 kg/ha",3.0
same,SETVI herbicidal rating,"SETVI (Foxtail, Green) [2]; rate 0.0315 kg/ha",1.0
same,SETVI herbicidal rating,"SETVI (Foxtail, Green) [2]; rate 0.0630 kg/ha",1.0
same,GLXMAW herbicidal rating,[3]; rate 0.0158 kg/ha,5.5
same,GLXMAW herbicidal rating,[3]; rate 0.0315 kg/ha,6.0
same,GLXMAW herbicidal rating,[3]; rate 0.0630 kg/ha,6.0
same,ORYSAT herbicidal rating,"ORYSAT (Rice, Tebonnet); rate 0.0158 kg/ha",2.5
same,ORYSAT herbicidal rating,"ORYSAT (Rice, Tebonnet); rate 0.0315 kg/ha",3.0
same,ORYSAT herbicidal rating,"ORYSAT (Rice, Tebonnet); rate 0.0630 kg/ha",4.5
same,TRZAWR herbicidal rating,[4]; rate 0.0158 kg/ha,3.0
same,TRZAWR herbicidal rating,[4]; rate 0.0315 kg/ha,3.0
same,TRZAWR herbicidal rating,[4]; rate 0.0630 kg/ha,4.5
same,ZEAMX herbicidal rating,"ZEAMX (Corn, Field); rate 0.0158 kg/ha",4.5
same,ZEAMX herbicidal rating,"ZEAMX (Corn, Field); rate 0.0315 kg/ha",4.5
same,ZEAMX herbicidal rating,"ZEAMX (Corn, Field); rate 0.0630 kg/ha",5.5
same,Preemergence herbicidal rating AMBEL,"AMBEL (Ragweed, Common); rate 0.0156 kg/ha",0.0
same,Preemergence herbicidal rating AMBEL,"AMBEL (Ragweed, Common); rate 0.0313 kg/ha",4.0
same,Preemergence herbicidal rating AMBEL,"AMBEL (Ragweed, Common); rate 0.0625 kg/ha",5.0
same,Preemergence herbicidal rating AMBEL,"AMBEL (Ragweed, Common); rate 0.1250 kg/ha",9.0
same,Preemergence herbicidal rating AMBEL,"AMBEL (Ragweed, Common); rate 0.2500 kg/ha",7.0
same,Preemergence herbicidal rating GALAP,GALAP (Galium); rate 0.0156 kg/ha,0.0
same,Preemergence herbicidal rating GALAP,GALAP (Galium); rate 0.0313 kg/ha,0.0
same,Preemergence herbicidal rating GALAP,GALAP (Galium); rate 0.0625 kg/ha,0.0
same,Preemergence herbicidal rating GALAP,GALAP (Galium); rate 0.1250 kg/ha,1.0
same,Preemergence herbicidal rating GALAP,GALAP (Galium); rate 0.2500 kg/ha,1.0
same,Preemergence herbicidal rating SETVI,"SETVI (Foxtail, Green) [5]; rate 0.0156 kg/ha",0.0
same,Preemergence herbicidal rating SETVI,"SETVI (Foxtail, Green) [5]; rate 0.0313 kg/ha",0.0
same,Preemergence herbicidal rating SETVI,"SETVI (Foxtail, Green) [5]; rate 0.0625 kg/ha",0.0
same,Preemergence herbicidal rating SETVI,"SETVI (Foxtail, Green) [5]; rate 0.1250 kg/ha",4.0
same,Preemergence herbicidal rating SETVI,"SETVI (Foxtail, Green) [5]; rate 0.2500 kg/ha",7.0
same,CYPIR herbicidal effect rating,CYPIR (Rice Flatsedge); 0.0313 kg/ha,3.0
same,CYPIR herbicidal effect rating,CYPIR (Rice Flatsedge); 0.0625 kg/ha,3.0
same,CYPIR herbicidal effect rating,CYPIR (Rice Flatsedge); 0.1250 kg/ha,3.0
same,CYPIR herbicidal effect rating,CYPIR (Rice Flatsedge); 0.2500 kg/ha,3.0
same,Herbicidal rating ECHORC,[6]; [8],0.0
same,Herbicidal rating ECHORC,[6]; [9],4.0
same,Herbicidal rating ECHORC,[6]; [10],5.0
same,Herbicidal rating ECHORC,[6]; [11],7.0
same,Herbicidal rating CYPSE,CYPSE (Flatsedge); [8],3.0
same,Herbicidal rating CYPSE,CYPSE (Flatsedge); [9],3.0
same,Herbicidal rating CYPSE,CYPSE (Flatsedge); [10],9.0
same,Herbicidal rating CYPSE,CYPSE (Flatsedge); [11],9.0
same,Herbicidal rating SAGPY,[7]; [8],0.0
same,Herbicidal rating SAGPY,[7]; [9],0.0
same,Herbicidal rating SAGPY,[7]; [10],3.0
same,Herbicidal rating SAGPY,[7]; [11],3.0
CCOC(=O)CN1CCSC1=Nc1cc(-n2nc(C)n(C(F)F)c2=O)c(F)cc1Cl [Compound 36],Postemergence herbicidal rating ABUTH,ABUTH (Velvetleaf); Rate 0.0158 kg/ha,9.0
same,Postemergence herbicidal rating ABUTH,ABUTH (Velvetleaf); Rate 0.0315 kg/ha,9.0
same,Postemergence herbicidal rating ABUTH,ABUTH (Velvetleaf); Rate 0.0630 kg/ha,9.0
same,Postemergence herbicidal rating CHEAL,[1]; Rate 0.0158 kg/ha,2.0
same,Postemergence herbicidal rating CHEAL,[1]; Rate 0.0315 kg/ha,3.0
same,Postemergence herbicidal rating CHEAL,[1]; Rate 0.0630 kg/ha,4.0
same,Postemergence herbicidal rating SETVI,"SETVI (Foxtail, Green) [2]; Rate 0.0158 kg/ha",3.0
same,Postemergence herbicidal rating SETVI,"SETVI (Foxtail, Green) [2]; Rate 0.0315 kg/ha",9.0
same,Postemergence herbicidal rating SETVI,"SETVI (Foxtail, Green) [2]; Rate 0.0630 kg/ha",9.0
same,Postemergence herbicidal rating GLXMAW,[3]; Rate 0.0158 kg/ha,5.0
same,Postemergence herbicidal rating GLXMAW,[3]; Rate 0.0315 kg/ha,5.5
same,Postemergence herbicidal rating GLXMAW,[3]; Rate 0.0630 kg/ha,8.0
same,Postemergence herbicidal rating ORYSAT,"ORYSAT (Rice, Tebonnet); Rate 0.0158 kg/ha",0.5
same,Postemergence herbicidal rating ORYSAT,"ORYSAT (Rice, Tebonnet); Rate 0.0315 kg/ha",1.0
same,Postemergence herbicidal rating ORYSAT,"ORYSAT (Rice, Tebonnet); Rate 0.0630 kg/ha",6.0
same,Postemergence herbicidal rating TRZAWR,[4]; Rate 0.0158 kg/ha,1.5
same,Postemergence herbicidal rating TRZAWR,[4]; Rate 0.0315 kg/ha,2.5
same,Postemergence herbicidal rating TRZAWR,[4]; Rate 0.0630 kg/ha,3.5
same,Postemergence herbicidal rating ZEAMX,"ZEAMX (Corn, Field); Rate 0.0158 kg/ha",4.5
same,Postemergence herbicidal rating ZEAMX,"ZEAMX (Corn, Field); Rate 0.0315 kg/ha",6.0
same,Postemergence herbicidal rating ZEAMX,"ZEAMX (Corn, Field); Rate 0.0630 kg/ha",7.5
same,Preemergence herbicidal rating AMBEL,"AMBEL (Ragweed, Common); rate 0.0625 kg/ha",0.0
same,Preemergence herbicidal rating AMBEL,"AMBEL (Ragweed, Common); rate 0.1250 kg/ha",0.0
same,Preemergence herbicidal rating AMBEL,"AMBEL (Ragweed, Common); rate 0.2500 kg/ha",9.0
same,Preemergence herbicidal rating GALAP,GALAP (Galium); rate 0.0625 kg/ha,9.0
same,Preemergence herbicidal rating GALAP,GALAP (Galium); rate 0.1250 kg/ha,9.0
same,Preemergence herbicidal rating GALAP,GALAP (Galium); rate 0.2500 kg/ha,9.0
same,Preemergence herbicidal rating SETVI,"SETVI (Foxtail, Green) [5]; rate 0.0625 kg/ha",0.0
same,Preemergence herbicidal rating SETVI,"SETVI (Foxtail, Green) [5]; rate 0.1250 kg/ha",9.0
same,Preemergence herbicidal rating SETVI,"SETVI (Foxtail, Green) [5]; rate 0.2500 kg/ha",9.0
same,Herbicidal rating CYPIR,CYPIR (Rice Flatsedge); 0.0313 kg/ha,0.0
same,Herbicidal rating CYPIR,CYPIR (Rice Flatsedge); 0.0625 kg/ha,5.0
same,Herbicidal rating CYPIR,CYPIR (Rice Flatsedge); 0.1250 kg/ha,5.0
same,Herbicidal rating CYPIR,CYPIR (Rice Flatsedge); 0.2500 kg/ha,9.0
same,Herbicidal rating ECHORC,[6]; [12],4.0
same,Herbicidal rating ECHORC,[6]; [13],6.0
same,Herbicidal rating ECHORC,[6]; [14],7.0
same,Herbicidal rating ECHORC,[6]; [15],9.0
same,Herbicidal rating CYPSE,CYPSE (Flatsedge); [12],0.0
same,Herbicidal rating CYPSE,CYPSE (Flatsedge); [13],0.0
same,Herbicidal rating CYPSE,CYPSE (Flatsedge); [14],2.0
same,Herbicidal rating CYPSE,CYPSE (Flatsedge); [15],4.0
same,Herbicidal rating SAGPY,[7]; [12],0.0
same,Herbicidal rating SAGPY,[7]; [13],0.0
same,Herbicidal rating SAGPY,[7]; [14],3.0
same,Herbicidal rating SAGPY,[7]; [15],9.0
